From ChEMBL document CHEMBL5149982, “Development of Potent NEDD8-Activating Enzyme Inhibitors Bearing a Pyrimidotriazole Scaffold” (J Med Chem, 2021) come the findings set out here.

In one assay the test system is HCT-116. In words: Antiproliferative activity against human HCT-116 cells assessed as cell growth inhibition by sulforhodamine B assay. The format is functional, cell-based.
In assay [1] the target is T1, NEDD8 activating enzyme (Homo sapiens, UniProt Q8TBC4).
T1 sequence (Q8TBC4 whole entry): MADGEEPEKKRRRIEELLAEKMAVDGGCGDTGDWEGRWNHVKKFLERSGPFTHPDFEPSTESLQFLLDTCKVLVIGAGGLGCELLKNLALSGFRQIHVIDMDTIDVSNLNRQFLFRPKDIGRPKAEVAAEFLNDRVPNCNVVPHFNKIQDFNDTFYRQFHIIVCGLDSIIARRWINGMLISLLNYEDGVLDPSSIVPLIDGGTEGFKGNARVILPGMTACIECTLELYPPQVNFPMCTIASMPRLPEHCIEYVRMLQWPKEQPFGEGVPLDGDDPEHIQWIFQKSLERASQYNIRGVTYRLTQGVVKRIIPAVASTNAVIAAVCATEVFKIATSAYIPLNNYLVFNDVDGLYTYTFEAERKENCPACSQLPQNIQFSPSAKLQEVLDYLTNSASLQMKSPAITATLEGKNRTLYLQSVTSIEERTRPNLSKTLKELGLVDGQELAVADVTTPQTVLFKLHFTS
T1 sequence (Q13564 whole entry): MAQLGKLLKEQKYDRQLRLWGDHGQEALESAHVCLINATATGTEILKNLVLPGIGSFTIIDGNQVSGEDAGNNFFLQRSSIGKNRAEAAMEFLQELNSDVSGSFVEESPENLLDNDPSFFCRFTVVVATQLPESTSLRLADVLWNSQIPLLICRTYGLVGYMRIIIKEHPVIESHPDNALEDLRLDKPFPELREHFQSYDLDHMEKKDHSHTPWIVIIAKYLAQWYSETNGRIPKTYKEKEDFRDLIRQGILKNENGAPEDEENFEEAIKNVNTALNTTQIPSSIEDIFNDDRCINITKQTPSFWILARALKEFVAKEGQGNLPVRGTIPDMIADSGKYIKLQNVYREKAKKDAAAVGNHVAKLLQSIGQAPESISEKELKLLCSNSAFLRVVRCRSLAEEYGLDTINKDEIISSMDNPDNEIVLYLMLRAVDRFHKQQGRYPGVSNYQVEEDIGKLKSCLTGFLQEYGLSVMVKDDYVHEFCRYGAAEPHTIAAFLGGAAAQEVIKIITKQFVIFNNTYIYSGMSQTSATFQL
In words: Inhibition of NAE (unknown origin) mediated neddylation assessed as decrease in NEDD8-Ubcl2 adduct formation incubated for 2 hrs in presence of L-glutathione and ATP by HTRF assay. The format is protein-complex assay. For orientation: In TR-FRET formats the signal depends on donor and acceptor labels being close together.

In assay [2] the target is Voltage-gated inwardly rectifying potassium channel KCNH2 (Homo sapiens, UniProt Q12809). The assay is described as follows: Inhibition of hERG channel. The format is toxicity. For orientation: hERG is a cardiac potassium channel; its block is linked to QT prolongation.
Assay [3] addresses T1, NEDD8 activating enzyme. The assay is described as follows: Inhibition of NAE (unknown origin). In kind it is protein-complex assay.
Assay [4] addresses T1, NEDD8 activating enzyme. The assay is described as follows: Inhibition of NAE in human HCT-116 cells incubated for 1 hr by Western blot analysis. The format is cell-based. A general note: Immunoblotting shows a protein as a band on a membrane.

pIC50: −log10 of the molar value. Bounds are passed on as bounds.

Sequence of Voltage-gated inwardly rectifying potassium channel KCNH2 (Q12809 whole entry): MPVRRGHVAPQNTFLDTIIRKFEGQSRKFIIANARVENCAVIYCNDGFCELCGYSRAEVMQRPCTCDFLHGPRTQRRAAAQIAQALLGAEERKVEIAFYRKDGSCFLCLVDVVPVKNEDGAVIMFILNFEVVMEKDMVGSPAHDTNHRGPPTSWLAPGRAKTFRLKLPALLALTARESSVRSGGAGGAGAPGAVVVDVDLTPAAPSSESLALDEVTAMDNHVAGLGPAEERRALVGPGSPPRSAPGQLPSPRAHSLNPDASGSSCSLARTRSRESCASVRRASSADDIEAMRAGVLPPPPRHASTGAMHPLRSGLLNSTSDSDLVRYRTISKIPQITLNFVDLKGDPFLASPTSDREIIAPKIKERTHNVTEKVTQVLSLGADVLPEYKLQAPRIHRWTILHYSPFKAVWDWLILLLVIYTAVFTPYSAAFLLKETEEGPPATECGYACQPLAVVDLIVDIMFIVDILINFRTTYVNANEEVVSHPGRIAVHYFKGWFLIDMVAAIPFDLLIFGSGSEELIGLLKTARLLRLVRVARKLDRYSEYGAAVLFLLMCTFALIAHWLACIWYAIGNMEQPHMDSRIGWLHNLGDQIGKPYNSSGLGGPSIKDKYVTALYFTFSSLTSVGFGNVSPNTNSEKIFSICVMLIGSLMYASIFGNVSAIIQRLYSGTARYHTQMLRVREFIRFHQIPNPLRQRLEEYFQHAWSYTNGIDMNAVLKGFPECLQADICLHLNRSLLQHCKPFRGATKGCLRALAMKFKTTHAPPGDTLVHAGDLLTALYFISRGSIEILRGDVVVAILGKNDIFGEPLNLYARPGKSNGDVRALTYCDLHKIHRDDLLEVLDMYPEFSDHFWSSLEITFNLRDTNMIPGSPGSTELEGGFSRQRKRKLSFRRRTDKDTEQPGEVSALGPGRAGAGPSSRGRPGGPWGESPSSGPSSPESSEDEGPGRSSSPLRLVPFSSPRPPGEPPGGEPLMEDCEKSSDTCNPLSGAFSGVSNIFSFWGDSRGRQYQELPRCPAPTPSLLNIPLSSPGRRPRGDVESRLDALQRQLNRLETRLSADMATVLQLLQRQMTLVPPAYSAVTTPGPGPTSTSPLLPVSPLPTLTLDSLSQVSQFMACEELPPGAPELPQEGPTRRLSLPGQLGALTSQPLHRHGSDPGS

A word on the pIC50: it is the IC50 on a negative log10 scale, so that one unit is a factor of ten. For `CCOC(=O)N1CCC2(CC1)C[C@H](Nc1ncnc3c1nnn3[C@@H]1C[C@@H](COS(N)(=O)=O)[C@@H](O)C1)c1ccccc12`, the results for the negative-log IC50 (pIC50) in the assay with HCT-116 and at NEDD8 activating enzyme [1] were 6.99 and 8.65, respectively.
For the compound `NS(=O)(=O)OC[C@@H]1C[C@@H](n2nnc3c(Nn4ccc5ccccc54)ncnc32)C[C@@H]1O`, on NEDD8 activating enzyme [1], the negative logarithm of the IC50 (pIC50) was below 5.00.
Consider `COC(=O)[C@H]1C=C[C@@H](Nc2ncnc3c2nnn3[C@@H]2C[C@@H](COS(N)(=O)=O)[C@@H](O)C2)C1`, for which the pIC50 at NEDD8 activating enzyme [1] is 7.09.
Same read-out and setting: under `NS(=O)(=O)OC[C@@H]1C[C@@H](n2nnc3c(NC4CCCC4)ncnc32)C[C@@H]1O` stands below 5.00; under `NS(=O)(=O)OC[C@@H]1C[C@@H](n2nnc3c(NCCc4cccs4)ncnc32)C[C@@H]1O`, 6.97.
Turning to `CC(C)(C)OC(=O)N1CCC2(CC1)C[C@H](Nc1ncnc3c1nnn3[C@@H]1C[C@@H](COS(N)(=O)=O)[C@@H](O)C1)c1ccccc12`, the negative logarithm of the IC50 (pIC50) with HCT-116 was 7.03; in assay [2] it was below 4.40; at NEDD8 activating enzyme [1] it was 8.01.
Consider `NS(=O)(=O)OC[C@@H]1C[C@@H](n2nnc3c(NCc4ccco4)ncnc32)C[C@@H]1O`, for which the pIC50 at NEDD8 activating enzyme [1] was 7.51.
The same measure, in the same setting: under `COCC(=O)N[C@H]1Cc2ccccc2[C@H]1Nc1ncnc2c1nnn2[C@@H]1C[C@@H](COS(N)(=O)=O)[C@@H](O)C1` stands 6.77.
Take `COCCO[C@H]1Cc2ccccc2[C@H]1Nc1ncnc2c1nnn2[C@@H]1C[C@@H](COS(N)(=O)=O)[C@@H](O)C1`: the pIC50 in the assay with HCT-116 was 7.15; at NEDD8 activating enzyme [1], 8.45.
For `NS(=O)(=O)OC[C@@H]1C[C@@H](Nc2ncnc(N[C@H]3CCc4ccccc43)c2F)C[C@@H]1O`, the pIC50 on NEDD8 activating enzyme [1] was 6.66.
The same measure, in the same setting: under `CCCCCCNc1ncnc2c1nnn2[C@@H]1C[C@@H](COS(N)(=O)=O)[C@@H](O)C1` stands 7.68.
For `CCOc1cccc(F)c1C#Cc1cn([C@@H]2O[C@H](COS(N)(=O)=O)[C@@H](O)[C@H]2O)c2ncnc(N)c12`, the negative-log IC50 (pIC50) is 9.00 on NEDD8 activating enzyme [3] and 8.10 against NEDD8 activating enzyme [4].
Take `NS(=O)(=O)OC[C@@H]1C[C@@H](n2nnc3c(N[C@H]4CC5(CCN(C(=O)OCCF)CC5)c5ccccc54)ncnc32)C[C@@H]1O`: the pIC50 with HCT-116 is 6.98; on NEDD8 activating enzyme [1], 8.22.
Regarding `NS(=O)(=O)OC[C@@H]1C[C@@H](n2ncc3c(N[C@H]4CCc5ccccc54)ccnc32)C[C@@H]1O`, the negative-log IC50 (pIC50) at NEDD8 activating enzyme [1] was below 5.00.
For `CC(C)OC(=O)N1CCC2(CC1)C[C@H](Nc1ncnc3c1nnn3[C@@H]1C[C@@H](COS(N)(=O)=O)[C@@H](O)C1)c1ccccc12`, the negative-log IC50 (pIC50) was 6.92 in the assay with HCT-116 and 8.38 at NEDD8 activating enzyme [1].
As for `NS(=O)(=O)OC[C@@H]1C[C@@H](n2nnc3c(NCCCc4ccccc4)ncnc32)C[C@@H]1O`, the pIC50 at NEDD8 activating enzyme [1] is 6.83.
Regarding `NS(=O)(=O)OC[C@@H]1C[C@@H](n2nnc3c(N[C@H]4CCc5ccccc54)ncnc32)C[C@@H]1O`, the negative logarithm of the IC50 (pIC50) in the assay with HCT-116 is 7.36; in assay [2], below 4.40; on NEDD8 activating enzyme [1], 9.68.
Regarding `CN(C)[C@H]1Cc2ccccc2[C@H]1Nc1ncnc2c1nnn2[C@@H]1C[C@@H](COS(N)(=O)=O)[C@@H](O)C1`, the pIC50 on NEDD8 activating enzyme [1] is 6.68.
For `NS(=O)(=O)OC[C@@H]1C[C@@H](n2nnc3c(N[C@@H]4c5ccccc5C[C@@H]4O)ncnc32)C[C@@H]1O`, the pIC50 in the assay with HCT-116 is 7.41; in assay [2], below 4.40; on NEDD8 activating enzyme [1], 8.64.
For the compound `NS(=O)(=O)OC[C@@H]1C[C@@H](n2nnc3c(NCc4cccs4)ncnc32)C[C@@H]1O`, the pIC50 is below 5.00 in the assay with HCT-116 and 7.80 at NEDD8 activating enzyme [1].
For the compound `NS(=O)(=O)OC[C@@H]1C[C@@H](n2nnc3c(N[C@H]4CC5(CCNCC5)c5ccccc54)ncnc32)C[C@@H]1O`, the negative logarithm of the IC50 (pIC50) on NEDD8 activating enzyme [1] was 7.17.
In the case of `NS(=O)(=O)OC[C@@H]1C[C@@H](n2nnc3c(N[C@H]4CC5(CCN(C(=O)O[C@@H]6CCOC6)CC5)c5ccccc54)ncnc32)C[C@@H]1O`, the pIC50 in the assay on HCT-116 is 6.96; on NEDD8 activating enzyme [1] it was 9.24.
Take `COCC(=O)N[C@@H]1Cc2ccccc2[C@H]1Nc1ncnc2c1nnn2[C@@H]1C[C@@H](COS(N)(=O)=O)[C@@H](O)C1`: on NEDD8 activating enzyme [1], the pIC50 is below 5.00.
Turning to `CC(C)(C)NC(=O)N1CCC2(CC1)C[C@H](Nc1ncnc3c1nnn3[C@@H]1C[C@@H](COS(N)(=O)=O)[C@@H](O)C1)c1ccccc12`, the pIC50 with HCT-116 is 6.82; at NEDD8 activating enzyme [1], 10.70.
Consider `NS(=O)(=O)OC[C@@H]1C[C@@H](n2nnc3c(N[C@H]4CC5(CCN(C(=O)OCCN6CCOCC6)CC5)c5ccccc54)ncnc32)C[C@@H]1O`, for which the pIC50 with HCT-116 is 6.47; on NEDD8 activating enzyme [1], 8.00.
The like results for `COCC(=O)N1CCC2(CC1)C[C@H](Nc1ncnc3c1nnn3[C@@H]1C[C@@H](COS(N)(=O)=O)[C@@H](O)C1)c1ccccc12` were, in that order, 5.85 and 8.24.
For the compound `NS(=O)(=O)OC[C@@H]1C[C@@H](n2nnc3c(NCCc4ccccc4)ncnc32)C[C@@H]1O`, the pIC50 on NEDD8 activating enzyme [1] was 7.09.
`NS(=O)(=O)OC[C@H]1O[C@@H](n2cnc3c(N[C@H]4CCc5ccccc54)ncnc32)[C@H](O)[C@@H]1O`: the pIC50 on NEDD8 activating enzyme [3] was 8.00.
Take `NS(=O)(=O)OC[C@@H]1C[C@@H](n2nnc3c(Nc4cnc5ccccn45)ncnc32)C[C@@H]1O`: the pIC50 on NEDD8 activating enzyme [1] was below 5.00.
On the same count and under the same terms, under `NS(=O)(=O)OC[C@@H]1C[C@@H](n2nnc3c(Nc4n[nH]c5ccccc45)ncnc32)C[C@@H]1O` stands below 5.00.
For `NS(=O)(=O)OC[C@@H]1C[C@@H](n2nnc3c(NCc4ccccc4F)ncnc32)C[C@@H]1O`, the negative-log IC50 (pIC50) was 5.41 in the assay on HCT-116 and 8.21 on NEDD8 activating enzyme [1].
With `NS(=O)(=O)OC[C@@H]1C[C@@H](n2nnc3c(N[C@H]4CC5(CCN(C(=O)OC(C(F)(F)F)C(F)(F)F)CC5)c5ccccc54)ncnc32)C[C@@H]1O`, the pIC50 on NEDD8 activating enzyme [1] was 7.68.
As for `CN1CCC2(CC1)C[C@H](Nc1ncnc3c1nnn3[C@@H]1C[C@@H](COS(N)(=O)=O)[C@@H](O)C1)c1ccccc12`, on NEDD8 activating enzyme [1], the pIC50 was 6.73.
The same measure, in the same setting: under `NS(=O)(=O)OC[C@@H]1C[C@@H](n2nnc3c(N[C@H]4CC5(CCN(C(=O)OC(CO)CO)CC5)c5ccccc54)ncnc32)C[C@@H]1O` stands 6.92.
